20 compounds from US9365508B2, “Aroyl thiourea derivatives” (University Court of the University of St Andrews, priority 2009, dated 2016) can be followed below.

One test addresses SIRT1 (Homo sapiens (Human), UniProt Q96EB6). Kind of test: SIRT1 inhibition assay (Fluor de Lys fluorescence-based assay kit). Particulars: human recombinant enzyme; for inhibition at 60 µM: read-out: SirT1 (% inhib at 60 μM). Format: biochemical. As for the experimental part: (§1) SIRT1 and SIRT2 Inhibition Assays
(§2) All compounds were tested for inhibition of SIRT1 and SIRT2 using human recombinant enzymes available in the Fluor de Lys fluorescence-based assay kit (BIOMOL, AK555, AK556). All other required reagents were provided in the kit which was stored at −78° C. Before use, small aliquots of each enzyme (2-3 μL) were prepared, snap frozen in liquid nitrogen and stored at −78° C. Fresh dilutions of compounds were prepared in DMSO and further diluted in assay buffer. NAD^+ (12.5 […] at 4 mM) and Fluor de Lys SIRT1 or SIRT2 (12.5 μL at 100 μM) in assay buffer were added to a white 96 well plate, followed by compound (10 μL) and lastly enzyme (15 μL, 0.07 U/μL or SIRT1 and 0.3 U/μL for SIRT2). After incubation for 1 h at 37° C. a developer solution (50 μL) was added to each reaction. The developer solution contained 38 μL buffer, 10 μL developer and 2 μL nicotinamide (50 mM) per reaction. The plate was then incubated for 45 min at rt and then read using a Spectra Max Gemini fluorimeter with an excitation wavelength of 355 nm and an emission wavelength of 460 nm. SigmaPlot software was used to generate fit curves for raw plots and the equation for each curve was used to calculate IC50 data.

The next test deals with SIRT2 (Homo sapiens (Human), UniProt Q8IXJ6). Kind of test: SIRT2 inhibition assay (Fluor de Lys fluorescence-based assay kit). Particulars: human recombinant enzyme; for inhibition at 60 µM: read-out: SirT2 (% inhib at 60 μM). In kind it is biochemical. As for the experimental part: as §1, §2
SIRT2, sequence (Q8IXJ6 whole entry): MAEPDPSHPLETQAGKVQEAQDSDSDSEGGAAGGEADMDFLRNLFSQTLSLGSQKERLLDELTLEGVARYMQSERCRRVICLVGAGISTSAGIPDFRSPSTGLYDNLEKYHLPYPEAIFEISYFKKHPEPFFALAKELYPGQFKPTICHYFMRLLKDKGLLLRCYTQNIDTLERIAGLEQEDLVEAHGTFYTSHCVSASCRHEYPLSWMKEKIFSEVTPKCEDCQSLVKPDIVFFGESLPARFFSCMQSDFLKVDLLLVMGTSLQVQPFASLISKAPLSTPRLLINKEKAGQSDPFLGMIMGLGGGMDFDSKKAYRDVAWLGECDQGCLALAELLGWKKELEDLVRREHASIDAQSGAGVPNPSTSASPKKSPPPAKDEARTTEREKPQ

Counter-ions that a name gives are not always drawn.

SIRT1, sequence (Q96EB6 whole entry): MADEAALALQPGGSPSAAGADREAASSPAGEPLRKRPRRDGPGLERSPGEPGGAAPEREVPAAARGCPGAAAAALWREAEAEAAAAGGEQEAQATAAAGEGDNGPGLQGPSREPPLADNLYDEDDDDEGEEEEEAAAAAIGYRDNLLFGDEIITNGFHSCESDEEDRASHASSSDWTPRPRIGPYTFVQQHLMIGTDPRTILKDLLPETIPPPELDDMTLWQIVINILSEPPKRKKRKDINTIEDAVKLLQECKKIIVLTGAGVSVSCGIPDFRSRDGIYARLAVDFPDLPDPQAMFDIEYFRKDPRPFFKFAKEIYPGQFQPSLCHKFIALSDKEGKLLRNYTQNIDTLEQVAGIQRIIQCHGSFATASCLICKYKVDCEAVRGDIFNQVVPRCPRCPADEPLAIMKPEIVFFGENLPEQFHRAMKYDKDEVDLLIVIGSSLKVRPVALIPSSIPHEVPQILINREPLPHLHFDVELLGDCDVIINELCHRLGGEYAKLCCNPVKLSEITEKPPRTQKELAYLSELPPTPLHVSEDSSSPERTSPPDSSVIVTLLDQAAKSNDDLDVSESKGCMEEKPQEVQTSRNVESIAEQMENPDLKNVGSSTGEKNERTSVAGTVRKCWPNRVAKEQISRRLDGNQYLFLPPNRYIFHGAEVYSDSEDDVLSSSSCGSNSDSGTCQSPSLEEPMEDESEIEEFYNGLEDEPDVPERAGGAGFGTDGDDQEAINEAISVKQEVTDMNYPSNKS

As for `CCCc1ccc(C(=O)NC(=S)Nc2ccc(NC(=O)CCCCN(C)C)cc2)cc1` [Compound 345c, 5-Dimethylamino-pentanoic acid {4-[3-(4-propyl-benzoyl)-thioureido]-phenyl}-amide hydrochloride], the inhibition at 60 µM stood at 82.4% at SIRT1 (60 μM compound) and 89% at SIRT2 (60 μM compound).

As to `COc1cccc(C(=O)NC(=S)Nc2ccc(NC(=O)CCCCN(C)C)cc2)c1` [Compound B2, 5-Dimethylamino-pentanoic acid {4-[3-(3-methoxy-benzoyl)-thioureido]-phenyl}-amide hydrochloride], the inhibition at 60 µM stood at 25.3% on SIRT1 (60 μM compound) and 30.5% on SIRT2 (60 μM compound).

The term IC50 denotes the point on the concentration scale where inhibition reaches its midpoint. Consider `CN(C)CCCCC(=O)Nc1ccc(NC(=S)NC(=O)c2cccc(Br)c2)cc1` [Compound A6, 5-Dimethylamino-pentanoic acid {4-[3-(3-bromo-benzoyl)-thioureido]-phenyl}-amide hydrochloride], for which the inhibition at 60 µM turned out to be 70.5% at SIRT1 (60 μM compound) and 81% on SIRT2 (60 μM compound). Also, the half-maximal inhibitory concentration (IC50) was found to be 39.9 ± 8.1 µM at SIRT1 and 21.2 ± 7.2 µM at SIRT2.

As for `Cc1cc(C(=O)NC(=S)Nc2ccc(NC(=O)CCCCN(C)C)cc2)ccc1Br` [Compound C5, 5-Dimethylamino-pentanoic acid {4-[3-(4-bromo-3-methyl-benzoyl)-thioureido]-phenyl}-amide hydrochloride], the inhibition at 60 µM was 24% at SIRT1 (60 μM compound) and 77.1% on SIRT2 (60 μM compound). Also, the IC50 at SIRT1 turned out to be 69.6 ± 0.6 µM; at SIRT2, 34.3 ± 7.2 µM.

Take `CN(C)CCCCC(=O)Nc1ccc(NC(=S)NC(=O)c2ccc(C(C)(C)C)c(Br)c2)cc1` [Compound 361a, 5-Dimethylamino-pentanoic acid {4-[3-(3-bromo-4-tert-butyl-benzoyl)-thioureido]-phenyl}-amide hydrochloride]: the values for the inhibition at 60 µM on SIRT1 (60 μM compound) and at SIRT2 (60 μM compound) were 93.5% and 91.1%, respectively. In addition, the figures for the IC50 on SIRT1 and at SIRT2 were 18.3 ± 0.3 µM and 4.6 ± 0.6 µM, respectively.

With `COc1c(Br)cc(C(=O)NC(=S)Nc2ccc(NC(=O)CCCCN(C)C)cc2)cc1Br` [Compound 383a, 5-Dimethylamino-pentanoic acid {4-[3-(3,5-dibromo-4-methoxy-benzoyl)-thioureido]-phenyl}-amide hydrochloride], the concentration for half-maximal inhibition (IC50) is 47.2 ± 0.9 µM on SIRT1 and 14 ± 1.7 µM on SIRT2.

Take `CN(C)CCCCC(=O)Nc1ccc(NC(=S)NC(=O)c2ccc(N(C)C)cc2)cc1` [Compound 332a, 5-Dimethylamino-pentanoic acid {4-[3-(4-dimethylamino-benzoyl)-thioureido]-phenyl}-amide hydrochloride]: the inhibition at 60 µM is 55.7% on SIRT1 (60 μM compound) and 61.5% at SIRT2 (60 μM compound).

Regarding `CC(C)c1ccc(C(=O)NC(=S)Nc2ccc(NC(=O)CCCCN(C)C)cc2)cc1` [Compound 331a, 5-Dimethylamino-pentanoic acid {4-[3-(4-isopropyl-benzoyl)-thioureido]-phenyl}-amide hydrochloride], the figures for the inhibition at 60 µM on SIRT1 (60 μM compound) and at SIRT2 (60 μM compound) were 52.9% and 78.4%, respectively. The concentration for half-maximal inhibition (IC50) at SIRT1 came out at 64.8 ± 3.8 µM; on SIRT2, 32.5 ± 0.07 µM.

Take `CCCCc1ccc(C(=O)NC(=S)Nc2ccc(NC(=O)CCCCN(C)C)cc2)cc1` [Compound 345b, 5-Dimethylamino-pentanoic acid {4-[3-(4-butyl-benzoyl)-thioureido]-phenyl}-amide hydrochloride]: the inhibition at 60 µM on SIRT1 (60 μM compound) came to 56.3%; at SIRT2 (60 μM compound), 90%.

Consider `Cc1ccccc1C(=O)NC(=S)Nc1ccc(NC(=O)CCCCN(C)C)cc1` [Compound A1, 5-Dimethylamino-pentanoic acid {4-[3-(2-methyl-benzoyl)-thioureido]-phenyl}-amide hydrochloride], for which the inhibition at 60 µM came to 10% on SIRT1 (60 μM compound) and 48.5% at SIRT2 (60 μM compound). The figures for the IC50 at SIRT1 and at SIRT2 were more than 90 µM and 80.7 ± 14.4 µM, respectively.

As for `COc1ccc(C(=O)NC(=S)Nc2ccc(NC(=O)CCCCN(C)C)cc2)cc1` [318a A3, 5-Dimethylamino-pentanoic acid {4-[3-(4-methoxy-benzoyl)-thioureido]-phenyl}-amide hydrochloride], the inhibition at 60 µM is 48% at SIRT1 (60 μM compound) and 51% at SIRT2 (60 μM compound).

As for `COc1ccc(C(=O)NC(=S)Nc2ccc(NC(=O)CCCCN(C)C)cc2)cc1Cl` [Compound 350a, 5-Dimethylamino-pentanoic acid {4-[3-(3-chloro-4-methoxy-benzoyl)-thioureido]-phenyl}-amide hydrochloride], the values for the inhibition at 60 µM on SIRT1 (60 μM compound) and on SIRT2 (60 μM compound) were 9% and 37.8%, respectively.

Take `Cc1ccc(C(=O)NC(=S)Nc2ccc(NC(=O)CCCCN(C)C)cc2)cc1Br` [Compound 330a, 5-Dimethylamino-pentanoic acid {4-[3-(3-bromo-4-methyl-benzoyl)-thioureido]-phenyl}-amide hydrochloride]: the inhibition at 60 µM on SIRT1 (60 μM compound) came to 33%; at SIRT2 (60 μM compound), 80.2%. Also, the IC50 was determined as 43.9 ± 7.3 µM at SIRT1 and 31.9 ± 1.6 µM at SIRT2.

As for `CCCCCc1ccc(C(=O)NC(=S)Nc2ccc(NC(=O)CCCCN(C)C)cc2)cc1` [Compound 345a, 5-Dimethylamino-pentanoic acid {4-[3-(4-pentyl-benzoyl)-thioureido]-phenyl}-amide hydrochloride], the inhibition at 60 µM at SIRT1 (60 μM compound) stood at 73%; on SIRT2 (60 μM compound), 85.4%.

Turning to `CN(C)CCCCC(=O)Nc1ccc(NC(=S)NC(=O)c2ccc(C(F)(F)F)cc2)cc1.Cl` [Compound B6], on SIRT1 (60 μM compound), the “SirT1 (% inhib at 60 μM)” value amounted to 10.9%. Moreover, the “SirT2 (% inhib at 60 μM)” value at SIRT2 (60 μM compound) was 17.1%.

On to `COc1ccccc1C(=O)NC(=S)Nc1ccc(NC(=O)CCCCN(C)C)cc1` [Compound A3, 5-Dimethylamino-pentanoic acid {4-[3-(2-methoxy-benzoyl)-thioureido]-phenyl}-amide hydrochloride], for which the inhibition at 60 µM worked out at 48.7% at SIRT1 (60 μM compound) and 66.8% on SIRT2 (60 μM compound).

On to `CN(C)CCCCC(=O)Nc1ccc(NC(=S)NC(=O)c2cccc(Cl)c2)cc1` [Compound A5, 5-Dimethylamino-pentanoic acid {4-[3-(3-chloro-benzoyl)-thioureido]-phenyl}-amide hydrochloride], for which the values for the inhibition at 60 µM on SIRT1 (60 μM compound) and on SIRT2 (60 μM compound) were 29.2% and 57.9%, respectively.

With `COc1ccc(C(=O)NC(=S)Nc2ccc(NC(=O)CCCCN(C)C)cc2)cc1C(F)(F)F` [Compound C6, 5-Dimethylamino-pentanoic acid {4-[3-(4-methoxy-3-trifluoromethyl-benzoyl)-thioureido]-phenyl}-amide hydrochloride], the results for the inhibition at 60 µM at SIRT1 (60 μM compound) and on SIRT2 (60 μM compound) were 58.3% and 29.5%, respectively. For the same compound, the values for the IC50 at SIRT1 and on SIRT2 were 51.7 ± 6.9 µM and more than 90 µM, respectively.

Regarding `CN(C)CCCCC(=O)Nc1ccc(NC(=S)NC(=O)c2cc(F)c(F)c(F)c2)cc1` [Compound D1, 5-Dimethylamino-pentanoic acid {4-[3-(3,4,5-trifluoro-benzoyl)-thioureido]-phenyl}-amide hydrochloride], the results for the inhibition at 60 µM at SIRT1 (60 μM compound) and at SIRT2 (60 μM compound) were 7.5% and 46%, respectively. Besides, the IC50 is more than 90 µM on SIRT1 and 52.5 ± 12.3 µM at SIRT2.

Turning to `COc1cc(C(=O)NC(=S)Nc2ccc(NC(=O)CCCCN(C)C)cc2)cc(OC)c1OC` [Compound D2, 5-Dimethylamino-pentanoic acid {4-[3-(3,4,5-trimethoxy-benzoyl)-thioureido]-phenyl}-amide hydrochloride], the inhibition at 60 µM at SIRT2 (60 μM compound) is 18%.
